Common to all, as to assay type: functional
For assay [1], the system named is SK-MEL-28. Briefly: Antiproliferative activity against human SK-MEL-28 cells assessed as growth inhibition after 48 hrs by sulforhodamine B assay. Conditions: SK-MEL-28, 48 h. A general note: Sulforhodamine B stains cellular protein and so reports cell mass.
Assay [2] is described as follows: Antiproliferative activity against human OVCAR8 cells assessed as growth inhibition after 48 hrs by sulforhodamine B assay. The settings on record: OVCAR-8, 48 h.
The subject of assay [3] is NCI-H522. Description: Antiproliferative activity against human NCI-H522 cells assessed as growth inhibition after 48 hrs by sulforhodamine B assay. The settings on record: NCI-H522, 48 h.
Assay [4] concerns M14. Briefly: Antiproliferative activity against human M14 cells assessed as growth inhibition after 48 hrs by sulforhodamine B assay. Conditions: M14, 48 h.
Assay [5] can be described thus: Antiproliferative activity against human SNB75 cells assessed as growth inhibition after 48 hrs by sulforhodamine B assay. The settings on record: SNB-75, 48 h.
Assay [6] in a line: Antiproliferative activity against human UACC257 cells assessed as growth inhibition after 48 hrs by sulforhodamine B assay. Conditions: UACC-257, 48 h.
Assay [7] deals with T47D. Description: Antiproliferative activity against human T47D cells assessed as growth inhibition after 48 hrs by sulforhodamine B assay.
The subject of assay [8] is CCRF-CEM. Briefly: Antiproliferative activity against human CCRF-CEM cells assessed as growth inhibition after 48 hrs by sulforhodamine B assay.
Assay [9] can be described thus: Antiproliferative activity against human HOP62 cells assessed as growth inhibition after 48 hrs by sulforhodamine B assay. Conditions: HOP-62, 48 h.
Setting [10] is: read-out: LC50 (the source's name).

A word on the GI50: it is the concentration at which growth is held to half of that of the control. By TGI is commonly meant the concentration at which net growth stops.

For `CNC(=O)c1cc(Oc2ccc(NC(=O)Nc3ccc(Cl)c(C(F)(F)F)c3)cc2)ccn1` [SORAFENIB], the GI50 came to 2.51 µM in assay [1]; 2.51 µM in assay [2]; 2 µM in assay [3]; 2 µM in assay [4]; 3.16 µM in assay [5]; 2 µM in assay [6]. In addition, the GI50 in [8] and in [9] was 2 µM throughout. For the same molecule, the TGI is 7.94 µM in assay [1]; 10 µM in assay [2]; 6.31 µM in [3]; 5.01 µM in assay [4]; 10 µM in assay [5]; 5.01 µM in assay [6]. Also, the TGI turned out to be 7.94 µM in assay [7], 100 µM in assay [8] and 7.94 µM in assay [9]. The CC50 was found to be 31.6 µM in assay [1] (setting [10]); 25.1 µM in assay [4] (setting [10]); 39.8 µM in [5] (setting [10]); 20 µM in assay [6] (setting [10]); 31.6 µM in assay [7] (setting [10]); 100 µM in assay [8] (setting [10]).

For the origin of these results see ChEMBL document CHEMBL3797052 (Eur J Med Chem, 2016).
